Measured values: US20240391954A1, “MC4R AGONIST PEPTIDES” (The Regents of the University of Michigan, priority 2021, published 2024)
Where two headings read alike, the source gives them in different places. Positions of bridges follow the written chain, without caps; N, C: chain ends. Non-standard residues stand in square brackets, D forms with d. Residues, ends and D or L forms follow the SMILES beside them. dPhe(4-NH2) = Nc1ccc(C[C@@H](N)C(=O)O)cc1; dPhe(4-Br) = N[C@H](Cc1ccc(Br)cc1)C(=O)O; dPhe(4-I) = N[C@H](Cc1ccc(I)cc1)C(=O)O; d2Nal = N[C@H](Cc1ccc2ccccc2c1)C(=O)O; dTic = O=C(O)[C@H]1Cc2ccccc2CN1; Nle = CCCC[C@H](N)C(=O)O

Legend:
[1] = target: T1, human MC3R (Homo sapiens, UniProt P41968); test: split-luciferase cAMP sensor assay, agonist mode (measurement window 1), hMC3R; format: cell-based; settings: agonist mode; for Emax: read-out: MC3R cAMP % max activation; for EC50: read-out: MC3R cAMP EC50
T1 construct: expressed in transfected cells; host or cells: HEK-293 cells stably expressing the GScAMP22F split-luciferase cAMP sensor (parent reporter line from Promega); MC3R clone generated in-house, G418 selection
T1 sequence (P41968 whole entry): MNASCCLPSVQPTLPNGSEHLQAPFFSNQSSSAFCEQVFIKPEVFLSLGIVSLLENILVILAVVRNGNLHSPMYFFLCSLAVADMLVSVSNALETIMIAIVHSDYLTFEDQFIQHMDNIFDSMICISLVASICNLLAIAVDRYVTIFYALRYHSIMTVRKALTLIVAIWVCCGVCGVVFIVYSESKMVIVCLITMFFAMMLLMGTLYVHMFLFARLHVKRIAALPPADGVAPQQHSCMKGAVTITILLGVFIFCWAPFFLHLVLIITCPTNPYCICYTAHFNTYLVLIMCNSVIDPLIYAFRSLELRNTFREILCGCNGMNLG
Procedure, shortened: (§1)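 Live stable cell lines carrying receptor plus GloSensor cAMP22f split-luciferase, loaded with 4% D-luciferin in serum-free medium (~1% serum estimated during assay). Luminescence recorded during in-line peptide addition; direct agonist effect read in window 1, with 20 μM forskolin as normalization reference. EC50 from four-parameter sigmoid fit.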

[2] = target: T2, human MC4R (Homo sapiens, UniProt P32245); test: split-luciferase cAMP sensor assay, agonist mode (measurement window 1), hMC4R; format: cell-based; settings: for Emax / EC50: agonist mode; for Emax: read-out: MC4R cAMP % max activation; for EC50: read-out: MC4R cAMP EC50
T2 construct: host or cells: HEK-293 cells stably expressing the GScAMP22F split-luciferase cAMP sensor and hMC4R, G418 selection
T2 sequence (P32245 whole entry): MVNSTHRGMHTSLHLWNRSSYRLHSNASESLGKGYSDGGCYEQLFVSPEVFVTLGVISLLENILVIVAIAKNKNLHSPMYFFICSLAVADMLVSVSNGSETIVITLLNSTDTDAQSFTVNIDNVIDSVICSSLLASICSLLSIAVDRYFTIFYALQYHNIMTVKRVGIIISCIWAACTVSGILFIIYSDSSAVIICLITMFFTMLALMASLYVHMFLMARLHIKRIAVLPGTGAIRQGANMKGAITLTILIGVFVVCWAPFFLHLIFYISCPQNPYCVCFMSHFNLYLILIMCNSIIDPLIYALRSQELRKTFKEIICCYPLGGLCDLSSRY
Procedure, shortened: as §1

Compound | Emax ([1]; hMC3R stable cell line) [%] | EC50 ([1]; hMC3R stable cell line) [nM] | MC4R selectivity vs MC1R [2] | MC4R selectivity vs MC3R [2] | Emax ([2]; hMC4R stable cell line) [%] | EC50 ([2]; hMC4R stable cell line) [nM] | Emax ([1]; % maximal activation) [%] | Emax ([2]; % maximal activation) [%]
CCCC[C@H](NC(=O)[C@H](CCCNC(=N)N)NC(C)=O)C(=O)N[C@H]1CSSC[C@@H](C(N)=O)NC(=O)[C@@H](Cc2c[nH]c3ccccc23)NC(=O)[C@H](CCCNC(=N)N)NC(=O)[C@@H](Cc2ccc(Br)cc2)NC(=O)[C@H](CCCNC(=N)N)NC1=O [CTX-1613, Arg-Nle-cyclo(Cys-Arg-D-Phe(4-Br)-Arg-D-Trp-Cys)] (Ac-R[Nle]CR[dPhe(4-Br)]R[dW]C-NH2; disulfide 3-8 (inferred)) | 35 | 4 | 0.79 | 2.1 | 32 | 1.9 |  | 
CC(=O)N[C@@H](CCCNC(=N)N)C(=O)N[C@H]1CSSC[C@@H](C(N)=O)NC(=O)[C@H](Cc2c[nH]c3ccccc23)NC(=O)[C@H](CCCNC(=N)N)NC(=O)[C@@H](Cc2ccc3ccccc3c2)NC(=O)[C@@H]2CCCN2C(=O)[C@@H](C)NC1=O [CTX-2203] (Ac-RC[dA]P[d2Nal]RWC-NH2; disulfide 2-8 (inferred)) | 1 | 29 |  | 2.45 | 1.4 | 12 |  | 
CCCC[C@H](NC(=O)[C@H](CCCNC(=N)N)NC(C)=O)C(=O)N[C@H]1CSSC[C@@H](C(N)=O)NC(=O)[C@H](Cc2ccccc2)NC(=O)[C@H](CCCNC(=N)N)NC(=O)[C@@H](Cc2ccc(Br)cc2)NC(=O)[C@H](CCCNC(=N)N)NC1=O [CTX-1623, Arg-Nle-cyclo(Cys-Arg-D-Phe(4-Br)-Arg-Phe-Cys)] (Ac-R[Nle]CR[dPhe(4-Br)]RFC-NH2; disulfide 3-8) |  |  |  |  |  |  | 62 | 73
CC(=O)N[C@@H](CCCNC(=N)N)C(=O)N[C@H]1CSSC[C@@H](C(N)=O)NC(=O)[C@@H](Cc2ccccc2)NC(=O)[C@H](CCCNC(=N)N)NC(=O)[C@@H](Cc2ccc(Br)cc2)NC(=O)[C@H](CCCNC(=N)N)NC(=O)[C@@H](C)NC1=O [CTX-1255, Arg-cyclo(Cys-D-Ala-Arg-D-Phe(4-Br)-Arg-D-Phe-Cys)] (Ac-RC[dA]R[dPhe(4-Br)]R[dF]C-NH2; disulfide 2-8 (inferred)) | 28 |  | 0.05 | 0.24 | 60 |  |  | 
CC(=O)Nc1ccc(C[C@H]2NC(=O)[C@H](CCCNC(=N)N)NC(=O)[C@@H](C)NC(=O)[C@@H](NC(=O)[C@H](CCCNC(=N)N)NC(C)=O)CSSC[C@@H](C(N)=O)NC(=O)[C@@H](Cc3c[nH]c4ccccc34)NC(=O)[C@H](CCCNC(=N)N)NC2=O)cc1 [CTX-1245, Arg-cyclo(Cys-D-Ala-Arg-D-Phe(4-NH-Ac)-Arg-D-Trp-Cys)] (Ac-RC[dA]R[dPhe(4-NH2)](Ac)R[dW]C-NH2; disulfide 2-8) | 6.3 |  |  |  | 34 |  |  | 
CCCC[C@H](NC(C)=O)C(=O)N[C@H]1CSSC[C@@H](C(N)=O)NC(=O)[C@@H](Cc2c[nH]c3ccccc23)NC(=O)[C@H](CCCNC(=N)N)NC(=O)[C@@H](Cc2ccc(I)cc2)NC(=O)[C@H](Cc2c[nH]cn2)NC1=O [CTX-1234, Nle-cyclo(Cys-His-D-Phe(4-I)-Arg-D-Trp-Cys)] (Ac-[Nle]CH[dPhe(4-I)]R[dW]C-NH2; disulfide 2-7 (inferred)) | 18 |  | 0.2 | 1.32 | 16 | 2.6 |  | 
CC(=O)N[C@@H](CCCNC(=N)N)C(=O)N[C@H]1CSSC[C@@H](C(N)=O)NC(=O)[C@@H](Cc2c[nH]c3ccccc23)NC(=O)[C@H](CCCNC(=N)N)NC(=O)[C@H]2Cc3ccccc3CN2C(=O)[C@H](CCCNC(=N)N)NC(=O)[C@@H](C)NC1=O [CTX-1273, Arg-cyclo(Cys-D-Ala-Arg-D-Tic-Arg-D-Trp-Cys)] (Ac-RC[dA]R[dTic]R[dW]C-NH2; disulfide 2-8) | 3.7 |  | 0.05 | 0.64 | 32 |  |  | 
